IC50 data for 32 compounds are collected here from US11459336B2, “Pyrazine carbamates and their use as GluN2B receptor modulators” (JANSSEN PHARMACEUTICA NV, priority 2019, dated 2022).

In this test the target is T1, human GluN1/GluN2B NMDA receptors (Homo sapiens, UniProt Q13224).
T1 construct: expressed in transfected cells
Nature of the test: Calcium flux (FLIPR) assay on cloned human GluN1/GluN2B ion channels expressed in mammalian cells, standard assay. Conditions: glutamate ~EC40, 10 μM glycine, stable cell line with Tet-On induced expression. The format is cell-based. Here is the method: NMDA receptors are ion channels that are highly permeable to Ca^2+ ions, rendering it possible to monitor NMDA receptor function using cell-based calcium flux assay. In this assay, co-agonists glutamate and glycine are added to cells heterologously expressing human GluN1/GluN2B NMDA receptors to initiate cellular Ca^2+ influx. The time course of the changes in intracellular calcium is measured using a fluorescent dye and a FLIPR (Fluorometric Imaging Plate Reader) device.
Twenty four hours before measurements, the expression of the NMDA receptors in the stable cell line is induced with Tet-On inducible system in the presence of a non-selective NMDA receptor blocker. On the day of the experiment, cell culture media is carefully washed and the cells are loaded with Calcium 5 Dye Kit (Molecular Devices) in dye loading buffer containing 137 mM NaCl, 4 mM KCl, 2 mM CaCl2, 0.5 mM MgCl2 (standard assay) or 1.5 mM MgCl2 (HTS assay), 10 mM HEPES and 5 mM D-glucose; pH 7.4. After 1 h incubation at the room temperature, the dye is washed away with the assay buffer (137 mM NaCl (standard assay) or 150 mM (HTS assay), 4 mM KCl (standard assay) or 3 mM (HTS assay), 2 mM CaCl2, 0.01 mM EDTA, 10 mM HEPES and 5 mM D-glucose; pH 7.4) In the FLIPR TETRA reader, various concentrations of the test compounds are added to the cells for 5 min while fluorescence is monitored to detect potential agonist activity. Next, co-agonists, glutamate and glycine are added for another 5 minutes. The concentration of glutamate corresponding to ˜EC40 (standard assay) or EC40 (HTS assay) is used to maximize the assay's signal window and ability to detect NMDA receptor antagonists and negative allosteric modulators. A saturating concentration (10 μM) of glycine is also present in the assay. A non-selective NMDA receptor antagonist, (+)MK-801 is used as a positive control for antagonist activity. The fluorescent signal in the presence of test compounds is quantified and normalized to the signal defined by the appropriate control wells.
(In general: A change in cytosolic calcium serves as a functional read-out for many receptors and channels.)

T1 sequence (Q13224 27-1484, other chains not shown): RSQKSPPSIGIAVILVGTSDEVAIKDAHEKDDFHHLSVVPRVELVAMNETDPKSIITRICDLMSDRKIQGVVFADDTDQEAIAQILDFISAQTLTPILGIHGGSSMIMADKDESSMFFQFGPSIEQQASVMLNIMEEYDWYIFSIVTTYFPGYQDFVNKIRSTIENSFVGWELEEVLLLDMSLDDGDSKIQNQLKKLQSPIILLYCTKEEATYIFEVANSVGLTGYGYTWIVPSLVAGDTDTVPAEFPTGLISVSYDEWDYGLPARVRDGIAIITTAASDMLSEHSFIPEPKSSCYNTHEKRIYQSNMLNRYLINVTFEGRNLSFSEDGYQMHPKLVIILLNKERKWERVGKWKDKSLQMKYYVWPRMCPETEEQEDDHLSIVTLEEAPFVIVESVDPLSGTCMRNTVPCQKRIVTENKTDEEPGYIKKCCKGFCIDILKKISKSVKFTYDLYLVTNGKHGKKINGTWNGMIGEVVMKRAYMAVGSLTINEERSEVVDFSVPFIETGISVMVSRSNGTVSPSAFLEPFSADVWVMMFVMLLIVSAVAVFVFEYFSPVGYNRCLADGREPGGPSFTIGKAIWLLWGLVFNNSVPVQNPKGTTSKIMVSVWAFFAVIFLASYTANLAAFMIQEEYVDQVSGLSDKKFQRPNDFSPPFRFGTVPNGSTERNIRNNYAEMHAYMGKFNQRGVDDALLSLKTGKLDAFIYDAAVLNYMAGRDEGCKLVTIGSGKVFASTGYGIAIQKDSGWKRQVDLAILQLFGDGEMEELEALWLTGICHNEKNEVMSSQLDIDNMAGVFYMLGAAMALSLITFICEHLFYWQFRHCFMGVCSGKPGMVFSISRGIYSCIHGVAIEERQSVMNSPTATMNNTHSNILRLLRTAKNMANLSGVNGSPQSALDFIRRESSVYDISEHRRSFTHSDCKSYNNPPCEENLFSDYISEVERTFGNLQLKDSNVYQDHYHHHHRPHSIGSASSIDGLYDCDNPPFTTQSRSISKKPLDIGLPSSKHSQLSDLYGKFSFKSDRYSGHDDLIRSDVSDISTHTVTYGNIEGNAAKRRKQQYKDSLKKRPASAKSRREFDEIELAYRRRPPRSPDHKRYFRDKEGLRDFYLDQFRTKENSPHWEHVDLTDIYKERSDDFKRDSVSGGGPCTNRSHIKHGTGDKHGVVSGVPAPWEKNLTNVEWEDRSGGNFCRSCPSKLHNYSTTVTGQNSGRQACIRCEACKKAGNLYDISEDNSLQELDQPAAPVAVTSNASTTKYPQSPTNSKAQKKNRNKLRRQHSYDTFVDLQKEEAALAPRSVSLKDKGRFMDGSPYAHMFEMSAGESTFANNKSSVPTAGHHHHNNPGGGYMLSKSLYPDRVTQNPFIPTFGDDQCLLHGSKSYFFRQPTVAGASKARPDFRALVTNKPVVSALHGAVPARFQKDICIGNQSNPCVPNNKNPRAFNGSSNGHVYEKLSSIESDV

For the compound `O=C1OCCN1Cc1cncc(-c2ccc(F)c(C(F)F)c2)n1` [Example 1, 3-[[6-[3-(Difluoromethyl)-4-fluoro-phenyl]pyrazin-2-yl]methyl]oxazolidin-2-one], the IC50 stood at 195 nM.

For `O=C1OCCN1Cc1cncc(-c2ccc(F)c(OC(F)F)c2)n1` [Example 2, 3-[[6-[3-(Difluoromethoxy)-4-fluoro-phenyl]pyrazin-2-yl]methyl]oxazolidin-2-one], the IC50 amounted to 73 nM.

Turning to `CC1(C)CN(Cc2cncc(-c3ccc(F)c(C(F)F)c3)n2)C(=O)O1` [Example 4, 3-[[6-[3-(Difluoromethyl)-4-fluoro-phenyl]pyrazin-2-yl]methyl]-5,5-dimethyl-oxazolidin-2-one], the IC50 was 1360 nM.

For `C[C@@H]1CN(Cc2cncc(-c3ccc(F)c(C(F)F)c3)n2)C(=O)O1` [Example 5, (5R)-3-[[6-[3-(Difluoromethyl)-4-fluoro-phenyl]pyrazin-2-yl]methyl]-5-methyl-oxazolidin-2-one], the IC50 was 29 nM.

Turning to `C[C@H]1CN(Cc2cncc(-c3ccc(F)c(C(F)F)c3)n2)C(=O)O1` [Example 6, (5S)-3-[[6-[3-(Difluoromethyl)-4-fluoro-phenyl]pyrazin-2-yl]methyl]-5-methyl-oxazolidin-2-one], the IC50 is 60 nM.

For `C[C@@H]1COC(=O)N1Cc1cncc(-c2ccc(F)c(C(F)F)c2)n1` [Example 7, (4R)-3-[[6-[3-(Difluoromethyl)-4-fluoro-phenyl]pyrazin-2-yl]methyl]-4-methyl-oxazolidin-2-one], the IC50 turned out to be 288 nM.

On to `O=C1OCCCN1Cc1cncc(-c2ccc(F)c(C(F)F)c2)n1` [Example 9, 3-[[6-[3-(Difluoromethyl)-4-fluoro-phenyl]pyrazin-2-yl]methyl]-1,3-oxazinan-2-one], for which the IC50 turned out to be 65 nM.

As to `Cc1ncc(-c2ccc(F)c(C(F)F)c2)nc1CN1CC2(CC2)OC1=O` [Example 10, 5-[[6-[3-(Difluoromethyl)-4-fluoro-phenyl]-3-methyl-pyrazin-2-yl]methyl]-7-oxa-5-azaspiro[2.4]heptan-6-one], the IC50 came to 37 nM.

Consider `Cc1ncc(-c2ccc(F)c(C(F)F)c2)nc1CN1C(=O)OC[C@@H]1C` [Example 12, (4S)-3-[[6-[3-(Difluoromethyl)-4-fluoro-phenyl]-3-methyl-pyrazin-2-yl]methyl]-4-methyl-oxazolidin-2-one], for which the IC50 stood at 605 nM.

Regarding `Cc1ncc(-c2ccc(F)c(C(F)F)c2)nc1CN1C[C@@H](C)OC1=O` [Example 13, (5R)-3-[[6-[3-(Difluoromethyl)-4-fluoro-phenyl]-3-methyl-pyrazin-2-yl]methyl]-5-methyl-oxazolidin-2-one], the IC50 turned out to be 45 nM.

Take `Cc1ncc(-c2ccc(F)c(C(F)F)c2)nc1CN1C[C@H](C)OC1=O` [Example 14, (5S)-3-[[6-[3-(Difluoromethyl)-4-fluoro-phenyl]-3-methyl-pyrazin-2-yl]methyl]-5-methyl-oxazolidin-2-one]: the IC50 worked out at 50 nM.

Regarding `O=C1OC2(CC2)CN1Cc1cncc(-c2ccc(F)c(OC(F)F)c2)n1` [Example 16, 5-[[6-[3-(Difluoromethoxy)-4-fluoro-phenyl]pyrazin-2-yl]methyl]-7-oxa-5-azaspiro[2.4]heptan-6-one], the IC50 was found to be 19 nM.

Take `CC1(C)CN(Cc2cncc(-c3ccc(F)c(OC(F)F)c3)n2)C(=O)O1` [Example 17, 3-[[6-[3-(Difluoromethoxy)-4-fluoro-phenyl]pyrazin-2-yl]methyl]-5,5-dimethyl-oxazolidin-2-one]: the IC50 turned out to be 1140 nM.

On to `C[C@@H]1COC(=O)N1Cc1cncc(-c2ccc(F)c(OC(F)F)c2)n1` [Example 18, (4R)-3-[[6-[3-(Difluoromethoxy)-4-fluoro-phenyl]pyrazin-2-yl]methyl]-4-methyl-oxazolidin-2-one], for which the IC50 amounted to 44 nM.

As to `C[C@H]1COC(=O)N1Cc1cncc(-c2ccc(F)c(OC(F)F)c2)n1` [Example 19, (4S)-3-[[6-[3-(Difluoromethoxy)-4-fluoro-phenyl]pyrazin-2-yl]methyl]-4-methyl-oxazolidin-2-one], the IC50 was 291 nM.

As to `C[C@@H]1CN(Cc2cncc(-c3ccc(F)c(OC(F)F)c3)n2)C(=O)O1` [Example 20, (5R)-3-[[6-[3-(Difluoromethoxy)-4-fluoro-phenyl]pyrazin-2-yl]methyl]-5-methyl-oxazolidin-2-one], the IC50 turned out to be 29 nM.

For the compound `C[C@H]1CN(Cc2cncc(-c3ccc(F)c(OC(F)F)c3)n2)C(=O)O1` [Example 21, (5S)-3-[[6-[3-(Difluoromethoxy)-4-fluoro-phenyl]pyrazin-2-yl]methyl]-5-methyl-oxazolidin-2-one], the IC50 was 20 nM.

In the case of `O=C1OCCCN1Cc1cncc(-c2ccc(F)c(OC(F)F)c2)n1` [Example 22, 3-[[6-[3-(Difluoromethoxy)-4-fluoro-phenyl]pyrazin-2-yl]methyl]-1,3-oxazinan-2-one], the IC50 was 17 nM.

In the case of `Cc1ncc(-c2ccc(F)c(OC(F)F)c2)nc1CN1CC2(CC2)OC1=O` [Example 23, 5-[[6-[3-(Difluoromethoxy)-4-fluoro-phenyl]-3-methyl-pyrazin-2-yl]methyl]-7-oxa-5-azaspiro[2.4]heptan-6-one], the IC50 was determined as 66 nM.

Take `Cc1ncc(-c2ccc(F)c(OC(F)F)c2)nc1CN1C(=O)OC[C@H]1C` [Example 24, (4R)-3-[[6-[3-(Difluoromethoxy)-4-fluoro-phenyl]-3-methyl-pyrazin-2-yl]methyl]-4-methyl-oxazolidin-2-one]: the IC50 turned out to be 78 nM.

Turning to `Cc1ncc(-c2ccc(F)c(OC(F)F)c2)nc1CN1C(=O)OC[C@@H]1C` [Example 25, (4S)-3-[[6-[3-(Difluoromethoxy)-4-fluoro-phenyl]-3-methyl-pyrazin-2-yl]methyl]-4-methyl-oxazolidin-2-one], the IC50 is 388 nM.

For `Cc1ncc(-c2ccc(F)c(OC(F)F)c2)nc1CN1C[C@@H](C)OC1=O` [Example 26, (5R)-3-[[6-[3-(Difluoromethoxy)-4-fluoro-phenyl]-3-methyl-pyrazin-2-yl]methyl]-5-methyl-oxazolidin-2-one], the IC50 was determined as 52 nM.

In the case of `Cc1ncc(-c2ccc(F)c(OC(F)F)c2)nc1CN1C[C@H](C)OC1=O` [Example 27, (5S)-3-[[6-[3-(Difluoromethoxy)-4-fluoro-phenyl]-3-methyl-pyrazin-2-yl]methyl]-5-methyl-oxazolidin-2-one], the IC50 amounted to 48 nM.

Take `Cc1ncc(-c2ccc(F)c(OC(F)F)c2)nc1CN1CCCOC1=O` [Example 28, 3-[[6-[3-(Difluoromethoxy)-4-fluoro-phenyl]-3-methyl-pyrazin-2-yl]methyl]-1,3-oxazinan-2-one]: the IC50 stood at 39 nM.

`O=C1OC2(CC2)CN1Cc1cncc(-c2ccc(Cl)c(OC(F)F)c2)n1` [Example 29, 5-[[6-[4-Chloro-3-(difluoromethoxy)phenyl]pyrazin-2-yl]methyl]-7-oxa-5-azaspiro[2.4]heptan-6-one]: the IC50 turned out to be 19 nM.

As for `CC1(C)CN(Cc2cncc(-c3ccc(Cl)c(OC(F)F)c3)n2)C(=O)O1` [Example 30, 3-[[6-[4-Chloro-3-(difluoromethoxy)phenyl]pyrazin-2-yl]methyl]-5,5-dimethyl-oxazolidin-2-one], the IC50 was found to be 669 nM.

Consider `C[C@@H]1CN(Cc2cncc(-c3ccc(Cl)c(OC(F)F)c3)n2)C(=O)O1` [Example 31, (5R)-3-[[6-[4-Chloro-3-(difluoromethoxy)phenyl]pyrazin-2-yl]methyl]-5-methyl-oxazolidin-2-one], for which the IC50 turned out to be 20 nM.

Take `C[C@H]1CN(Cc2cncc(-c3ccc(Cl)c(OC(F)F)c3)n2)C(=O)O1` [Example 32, (5S)-3-[[6-[4-Chloro-3-(difluoromethoxy)phenyl]pyrazin-2-yl]methyl]-5-methyl-oxazolidin-2-one]: the IC50 is 20 nM.

Consider `C[C@@H]1COC(=O)N1Cc1cncc(-c2ccc(Cl)c(OC(F)F)c2)n1` [Example 33, (4R)-3-[[6-[4-Chloro-3-(difluoromethoxy)phenyl]pyrazin-2-yl]methyl]-4-methyl-oxazolidin-2-one], for which the 50% inhibitory concentration (IC50) amounted to 21 nM.

`C[C@H]1COC(=O)N1Cc1cncc(-c2ccc(Cl)c(OC(F)F)c2)n1` [Example 34, (4S)-3-[[6-[4-Chloro-3-(difluoromethoxy)phenyl]pyrazin-2-yl]methyl]-4-methyl-oxazolidin-2-one]: the IC50 was 86 nM.

As for `O=C1OCCCN1Cc1cncc(-c2ccc(Cl)c(OC(F)F)c2)n1` [Example 35, 3-[[6-[4-Chloro-3-(difluoromethoxy)phenyl]pyrazin-2-yl]methyl]-1,3-oxazinan-2-one], the IC50 stood at 13 nM.

For the compound `Cc1ncc(-c2ccc(Cl)c(OC(F)F)c2)nc1CN1CC2(CC2)OC1=O` [Example 36, 5-[[6-[4-Chloro-3-(difluoromethoxy)phenyl]-3-methyl-pyrazin-2-yl]methyl]-7-oxa-5-azaspiro[2.4]heptan-6-one], the IC50 stood at 113 nM.

The term IC50 denotes the point on the concentration scale where inhibition reaches its midpoint.
